Experimental data from patent publication US20060106099A1, “Novel inhibitors of ubiquitin isopeptidases” (priority 2002, published 2006).
Read-outs that look alike come from different tables or passages of the source.

Key:
[1] = tested on: HCT 116 +/+ cells; assay: MTT cell viability assay, HCT 116 p53 +/+ cells; details: for cell death in HCT 116 +/+ compared with HCT 116 −/− cells: isogenic pair; for EC50: read-out: Cytotoxic Potency (EC50) HCT +/+
[2] = tested on: cell lines with mutant/deleted p53; details: mean of 41-42 cell lines with mutant/deleted p53, cited from earlier work
[3] = tested on: ubiquitin isopeptidases; assay: Ubiquitin isopeptidase activity, z-LRGG-AMC substrate, lysates of treated RKO and HCT 116 cells; type: cell-based, human; details: cells treated 6, 20 or 60 μM, 12 h
Procedure: RKO (upper) and HCT 116 ^+/+ cells (lower) were treated with DMSO vehicle, 6, 20, or 60 μM of Δ12-PGJ2, DBA, NSC-302979, or curcumin, 60 μM PGB1, 60 μM NSC-156236, or 60 μM DPTP for 12 h at 37° C. Cell lysates (0.5 mg/mL) from each treatment were incubated with the isopeptidase substrate, z-LRGG-AMC, for 3 h, 37° C. The amount of AMC cleaved by isopeptidase was determined fluorometrically, as described in Materials and Methods.
The second assay used a fluorescent tetrapeptide, z-LRGG-AMC, as a substrate that mimics the carboxy-terminus of ubiquitin. Isopeptidase activity hydrolyzes the bond between the c-terminal glycine and the fluorophore. This tetrapeptide also undergoes slow proteolysis by the catalytic subunit of the proteasome. To minimize this background rate of proteolysis cell lysates were incubated with 30 μM MG115 for 30 minutes at 4° C., prior to substrate incubation (>90% proteasome inhibition). Cells were teeated as above, lysed in 250 μL of lysis buffer per sample, and adjusted protein concentration to 0.5 mg/mL prior to incubation with MG115. Next, z-LRGG-AMC substrate was added and fluorescence was quantified of the AMC moiety cleaved by isopeptidase action.

[4] = tested on: polyubiquitin conjugates in RKO-E6 cells; assay: Accumulation of polyubiquitin in RKO-E6 cells (immunoblot); type: cell-based, human; details: EC80 or 60 μM, 6-24 h
Procedure: (§1) A) Accumulation of polyubiquitin. RKO-E6 cells were treated with DMSO vehicle for 24 h, 37° C., or with the concentrations of test compounds that gave 80% cell death (as determined by cell viability assay at 48 h) for 6, 12, or 24 h, 37° C. […] Schematic depicting p53 degradation via the proteasome pathway in RKO cells versus RKO-E6 cells. The activity of the HPV E6 oncoprotein hastens p53 degradation in RKO-E6 cells. ii. RKO and RKO-E6 cells were treated with vehicle, etoposide (50 μM), MG115 (20 μM), Δ12-PGJ2 (60 μM), NSC-302979 (20 μM, DBA (20 μM), curcumin (60 μM), PGB1 (60 μM), NSC-156236, (60 XM)or DPTP 60 μM for 6 h, 37° C. Lysates were fractionated by SDS-PAGE and their p53 content determined immunochemically. iii. p53 levels were measured by densitometry and the ratio of p53 protein in RKO-E6 cells/RKO cells calculated.
(§2) The medium was removed and cells lysed in 50 mM Tris, pH 7.4, 100 mM NaCl, 2 mM EDTA with 0.1% SDS, 0.1% deoxycholate, 1× complete protease inhibitor mixture. Protein concentration was measured by the Bradford method. Equal portions of the total cell lysate were fractionated from each sample (12.5 μg of protein) by SDS-PAGE. Proteins were transferred to poly(vinylidene difluoride) blocked with 5% (w/v) nonfat dry milk in Trisbuffered saline [20 mM Tris-HCl, pH 7.5, 100 mM sodium chloride, 0.1% (v/v) Tween 20]. Proteins were detected immunochemically by using primary antibodies directed against p53 (1:4000) or ubiquitin (1:1000), followed by horseradish peroxidase-conjugated secondary antibodies (1:4000). Antigen-antibody complexes were detected with enhanced chemiluminescence reagents. Gels were scanned and quantified intensities using Kodak 1D Image Analysis Software.

[5] = tested on: RKO-E6 cells; assay: MTT cell viability assay, RKO-E6 cells; details: for EC50: read-out: Cytotoxic Potency (EC50) RKO-E6
[6] = tested on: ubiquitin isopeptidases; assay: Ubiquitin isopeptidase activity, Ub-PEST substrate, lysates of treated RKO and HCT 116 cells; type: cell-based, human; details: cells treated 6, 20 or 60 μM, 12 h
Procedure: A) Inhibition of isopeptidase proteolysis of Ub-PEST substrate. RKO and HCT 116 cells were treated with DMSO vehicle, 6, 20, or 60 μM of Δ12-PGJ2, DBA, NSC-302979, or curcumin, 60 μM PGB1, 60 μM NSC-156236, or 60 μM DPTP for 12 h, 37° C. Cell lysates from each treatment were incubated with Ub-PEST, as described in materials and methods. Samples were fractionated by SDS-PAGE and proteins detected with ubiquitin epitopes immunochemically (HCT 116 ^+/+ western blot shown as example of raw data). […] B) Inhibition of isopeptidase activity by test panel compounds. Isopeptidase activity was determined by measuring via densitometry, the amount of Ub generated by isopeptidase cleavage of Ub-PEST. Bar graph patterns are DMSO vehicle (black), Δ12-PGJ2 (hatched), DBA (horizontal lines), NSC-302979 (white), PGB1 (diagonally downward right lines), and NSC-156236 (diagonally downward left lines). The amount of Ub generated in the vehicle treated sample (panel A, lane 2) is arbitrarily designated 100%.
Cellular isopeptidase enzymatic activity was measured with two assays that used different substrates. In one assay ubiquitin-PEST (Ub-PEST) was used, a full-length ubiquitin molecule with an 18 amino acid c-terminal peptide extension (total mass=10.5 kDa). Ubiquitin isopeptidases specifically cleave the 18 amino acid peptide extension, releasing full-length ubiquitin (8.5 kDa).
Briefly, 6×10^5 cells were incubated with 0-60 μM of test compounds for 12 hrs. Cells were lysed in 50 μL of 25 mM HEPES, 5 mM EDTA, 0.1% CHAPS, 5 mM ATP, pH 7.5. The protein concentration of each sample was adjusted to 0.3 mg/mL and incubated with 50 μg/mL Ub-PEST for 45 minutes at 25° C. Under these conditions, Ub-PEST hydrolysis occurs at a linear rate. 20 μL samples were mixed with 20 μL 2× Laemmli buffer, boiled briefly, and fractionated by SDSPAGE. Isopeptidase activity was monitored by determining the amount of product (8.5 kDa ubiquitin) formation.

[7] = tested on: cell lines with Wild type p53; details: cited from earlier work
[8] = tested on: HCT 116 −/− cells; assay: MTT cell viability assay, HCT 116 p53 −/− cells; details: read-out: Cytotoxic Potency (EC50) HCT −/−
[9] = tested on: RKO cells; assay: MTT cell viability assay, RKO cells; details: 48 h; for cell death in RKO compared with RKO-E6 cells: isogenic pair; for EC50: read-out: Cytotoxic Potency (EC50) RKO
Procedure: Cell viability was measured with MTT reagent as described in materials and methods.
Cell viability was detected by the MTT assay. Briefly, 1×10^5 cells were incubated per well of a sterile, 96-well assay plate with 0-60 μM of test compounds for 48 hours. MTT reagent was added to each well, final concentration of 0.5 mg/mL, and incubated for an additional 3 hours. The media was aspirated and remaining MTT reagent from each well and added 100 μL of HCl:isopropanol (1:24). The absorbance of each sample was measured at 405 nm.

[10] = tested on: p53; assay: p53 accumulation, ratio RKO-E6 cells/RKO cells (immunoblot, densitometry); type: cell-based, human; details: 6 h; etoposide 50 μM, MG115, NSC-302979, DBA 20 μM, others 60 μM
Procedure: as §1, §2

[11] = tested on: ubiquitin isopeptidases; assay: In vitro isopeptidase activity in HCT 116 lysates, Ub-PEST; type: biochemical, human; details: HCT 116 lysates, 45 min
Procedure: Isopeptidase Assay. It was hypothesized that the punaglandins would inhibit ubiquitin-isopeptidase activity of the proteasome pathway as does the prostaglandin, Δ^12-PGJ2 (1), but with greater potency because of the chlorinated C-10. To validate this theory, cellular isopeptidase enzymatic activity was measured in vitro after treatment with individual punaglandins, PNG 2 (6), PNG 3 (7), and Z-PNG 4 (9) and in vivo after individual treatment with PNG 4 (8) and PNG 6 (10). This activity was determined utilizing the simple isopeptidase substrate, ubiquitin-PEST (Ub-PEST), a full/length ubiquitin (Ub) molecule fused with an 18-amino acid C-terminal peptide extension that most isopeptidases use as a substrate. The polypeptide extension contains regions rich in Pro (P), Glu (E), Ser (S), and Thr (T) residues called PEST motifs that are responsible for rapid degradation of these and other unstable proteins. Ub isopeptidases specifically cleave this peptide extension, yielding free, full-length Ub. Both the fused Ub-PEST (10.5 kDa) and the cleaved, free Ub (8.5 kDa) can be observed via immunochemical detection.
In Vitro Isopeptidase Activity. PNG 2 (6), PNG 3 (7), and Z-PNG 4 (9) were initially analyzed for isopeptidase activity in vitro in HCT 116 lysates. Cells were lysed with isopeptidase activity buffer and protein concentration adjusted to 0.3 mg/mL per sample. Each sample was subsequently incubated with 2 μM, 6 μM, 20 μM, 60 μM, or 200 μM of PNG 2 (6), PNG 3 (7), Z-PNG 4 (9), Δ^12-PGJ2 (1), and PGA1 (2) in addition to 50 μg/ml of Ub-PEST. Negative control cells were treated with vehicle (0.5% DMSO) and equivalent Ub-PEST. […] The amount of fused Ub-PEST and free Ub product was determined by SDS-PAGE fractionation.

[12] = tested on: HCT 116 (p21 wt); assay: MTS cytotoxicity, HCT 116 (p21 wt); type: cell-based; details: Homo sapiens, log of EC50 in μM, 48 h, read-out: Log EC50 +/− Standard Error of Log EC50, HCT 116 (p21 wt) (converted)
Excerpt: (§3) Cytotoxicity in Human Colon Tumor (HCT) Cell Lines. To determine if punaglandins elicit cytotoxicity independently of the tumor-suppressor p53, as do other dienone prostaglandins, several cytotoxicity assays were employed. First, cell death effects of all isolated punaglandins were investigated in pairs of isogenic colon cancer cell lines, the HCT 116^+/+ competent cell line and HCT 116^−/− null cell lines. HCT 116^+/+ cells are homozygous for p53^+/+ and p21^+/+; where as, HCT 116^−/− cells lack both alleles for p53 (p53^−/−) or p21 (p21^−/−).
(§4) Each cell line was seeded simultaneously in 96-well plates and incubated for 24 h before treatment with individual punaglandins at various concentrations for 48 additional h. Cytotoxicity was determined using MTS and absorbances were recorded at 490 nm. Half maximal effective concentrations (EC50) and Log EC50s were calculated from a concentration-response curve generated using GraphPad Prism (Table 1).

[13] = tested on: HCT 116 (p21^−/−); assay: MTS cytotoxicity, HCT 116 (p21−/−); type: cell-based; details: Homo sapiens, log of EC50 in μM, 48 h, read-out: Log EC50 +/− Standard Error of Log EC50, HCT 116 (p21−/−) (converted)
Excerpt: as §3, §4

[14] = tested on: HCT 116 (p53^−/−); assay: MTS cytotoxicity, HCT 116 (p53−/−); type: cell-based; details: Homo sapiens, log of EC50 in μM, 48 h, read-out: Log EC50 +/− Standard Error of Log EC50, HCT 116 (p53−/−) (converted)
Excerpt: as §3, §4

[15] = tested on: HCT 116 (p53 wt); assay: MTS cytotoxicity, HCT 116 (p53 wt); type: cell-based; details: Homo sapiens, 48 h
Excerpt: as §3, §4

## COc1cc(/C=C/C(=O)CC(=O)/C=C/c2ccc(O)c(OC)c2)ccc1O [Curcumin, curcumin]
[1]; 48 h, MTT
  cell death in HCT 116 +/+ compared with HCT 116 −/− cells: caused cell death with equal potency
[1]; Homo sapiens, HCT-116, 48 h
  EC50: 9.7 ± 1.1 µM
[2]; read-out: Mutant p53 Mean LC50
  CC50: 68 µM
[3]
  inhibition of z-LRGG-AMC hydrolysis by ubiquitin isopeptidases: inhibited ubiquitin isopeptidase activity
[4]
  cellular accumulation of polyubiquitin conjugates: protein species with polyubiquitin conjugation accumulated in cells
[5]; Homo sapiens, RKOE6, 48 h
  EC50: 14.9 ± 8.5 µM
[5]; cell viability assay at 48 h, RKO-E6 cells
  EC80, concentration that gave 80% cell death: 17 µM
[6]
  inhibition of isopeptidase cleavage of Ub-PEST: inhibited isopeptidase activity in a concentration dependent manner
[7]; analysis according to O'Connor et al., 1997
  p53 dependence in NCI 60 cell line cancer screening data: act independently of p53
[8]; Homo sapiens, HCT-116, 48 h
  EC50: 8.6 ± 1.3 µM
[9]; MTT
  cell death in RKO compared with RKO-E6 cells: caused cell death with equal potency and efficacy
[9]; Homo sapiens, RKO
  EC50: 12.5 ± 5.9 µM
[10]
  ratio of p53 protein [RKO-E6 cells/RKO cells]: approached unity

## CC1=CC(=O)C2=C(C)CCC3C(C)C(=O)OC3C12 (stereo not drawn) [NSC-156236, achillin]
[1]; 48 h, MTT
  cell death in HCT 116 +/+ compared with HCT 116 −/− cells: did not cause significant cell death
  EC50: > 60 µM
[2]
  Mutant p53 Mean LC50: Inactive
[3]
  inhibition of z-LRGG-AMC hydrolysis by ubiquitin isopeptidases: did not
[4]
  cellular accumulation of polyubiquitin conjugates: did not cause appreciable cellular accumulation of ubiquitin conjugates
[5]; 48 h, MTT
  EC50: > 60 µM
[6]
  inhibition of isopeptidase cleavage of Ub-PEST: did not inhibit isopeptidase activity
[7]
  cytotoxic activity in NCI 60 cell line cancer screening data: no appreciable cytotoxic activity
[7]; mean of 18 cell lines with wild type p53
  Wild Type p53 Mean LC50: Inactive
[8]; 48 h, MTT
  EC50: > 60 µM
[9]; MTT
  cell death in RKO compared with RKO-E6 cells: did not cause significant cell death
  EC50: > 60 µM
[10]
  ratio of p53 protein [RKO-E6 cells/RKO cells]: significantly less than unity

## CCCCC/C=C\C[C@@]1(O)C=C(Cl)C(=O)/C1=C\[C@H](OC(C)=O)[C@H](CCCC(=O)OC)OC(C)=O [Z-PNG 4]
[11]
  concentration at which inhibition of Ub-PEST degradation is initially observed: 20 µM
  concentration of complete (total) inhibition of Ub-PEST degradation: 60 µM
[12]
  EC50: 0.0295 µM
[13]
  EC50: 0.0324 µM
[14]
  EC50: 0.0269 µM
[15]; read-out: EC50, cytotoxicity in HCT 116 cell lines
  EC50: 0.03 µM
[15]; log of EC50 in μM, read-out: Log EC50 +/− Standard Error of Log EC50, HCT 116 (p53 wt) (converted)
  EC50: 0.0316 µM
